The text below walks through data of publication PMC5831633 (PLoS ONE, 2018).

For one test, the system named is N1 and N2 sialidases. The conditions noted are these: cited from earlier work.
The target in test [1] is N1 wild-type neuraminidase (A/Anhui/1/2005 H5N1) (Influenza A virus, UniProt A0A0C5AGB3). Type of test: biochemical. The conditions noted are these: pH 6.5; read-out: Km for the MUNANA substrate.
For test [2], the target named is N2 neuraminidase (A/Chicken/HongKong/G9/1997 H9N2) (Influenza A virus, UniProt Q80H78). It is filed as biochemical. As to conditions: pH 6.5; read-out: Km for the MUNANA substrate.

SMILES strings stand for the structures. Counter-ions that a name gives are not always drawn.

In general, IC50 refers to the midpoint of a concentration-inhibition curve. The term Km denotes the concentration of substrate that gives half-maximal velocity.

`CCC(CC)OC1C(NC(C)=O)C(NCc2ccc(-c3ccccc3)cc2)C2C(C(=O)O)C12` (stereo not drawn) [Compound 4a]: the IC50 with N1 and N2 sialidases was 10 µM.
Regarding `CC(=O)N[C@H]1[C@H]([C@H](O)[C@H](O)CO)OC(Oc2ccc3c(C)cc(=O)oc3c2)(C(=O)O)C[C@@H]1O` (stereo partly drawn) [MUNANA, 2-(4-methylumbelliferyl) α-D-acetylneuraminic acid sodium salt hydrate], the figures for the Km in test [1] and in test [2] were 12.8 ± 1.9 µM and 70 ± 6.8 µM, respectively.
